# Assay results published in patent EP2444086A1, “Combinations comprising DHODH inhibitors and COX inhibitors” (Almirall, S.A., priority 2010, dated 2012).
# Test system: HaCaT cells
# Assay: Proliferation assay (ATP-lite bioluminescent assay of intracellular ATP content)
# Format: cell-based
# Settings: Homo sapiens, 144 h; inhibition of proliferation of HaCaT cells, 6 days incubation, 10% FBS, absolute IC50, mean of 3 experiments
# Description: Human adult low calcium high temperature (HaCaT) cells are spontaneously transformed human keratinocytes that have the characteristics of basal epidermal keratinocytes (Boukamp et at. J Cell Biol 106:761-771, 1988) This line can be used as in vitro model for highly proliferative epidermis (Ockenfels et at., Arch Dermatol Res 287:301-309, 1995)
# HaCaT cells exponentially growing were plated in clear bottom, white walled, 96-well plates at a density of 5000 cells/well in 100 µL Dulbecco's modified Eagle's medium (DMEM) containing 1% fetal bovine serum (FBS), and incubated overnight at 37 °C, 5% CO2. Next day, media in each well was replaced with 50 µL growth medium containing 10% FBS. 50 µL of compounds at two-fold the desired concentration in growth medium containing 2% dimethyl sulfoxide (DMSO) were added to the wells. Six wells were replaced with fresh 100 µL of medium containing 1% FBS and 1% DMSO and were used as a control of no proliferation. Six other wells were replaced with fresh 100 µL of medium containing 10% FBS and 1% DMSO and were used as a control of top proliferation. Each compound concentration was tested in triplicate and ranged from 100 µM to 0.4 µM in half-log serial dilutions. Plates were incubated at 37°C 5% CO2 for 6 consecutive days. On the day of the assay, media was removed and replaced with 100 µL of phosphate buffered saline (PBS). A bioluminescent assay was performed to assess the intracellular adenosine-5'-triphosphate (ATP) content following the manufacturer instructions (ATP-lite, Perkin Elmer, Belgium). Results were expressed as a % of inhibition of proliferation in relation to the top and bottom proliferation wells. Absolute IC50 corresponded to the concentration of compound that caused 50% inhibition of proliferation. Table 1 depicts the mean and the standard deviation of 3 experiments for each indicated compound/combination.
row,Compound,IC50
1,"COc1cccc(-c2cc(F)c(Nc3ncccc3C(=O)O)c(F)c2)c1 [Example 1, 2-(3,5-difluoro-3'-methoxybiphenyl-4-ylamino)nicotinic acid]",580 nM
2,"CC(O)=C(C#N)C(=O)Nc1ccc(C(F)(F)F)cc1 [Example 3, 2-Butenamide, 2-cyano-3-hydroxy-N-[4-(trifluoromethyl)phenyl]-, reference compound]",15200 nM
3,"O=C(O)c1cc(C2CC2)ccc1Nc1cnc(-c2c(F)cccc2F)nc1 [Example 2, 5-cyclopropyl-2-(2-(2,6-difluorophenyl)pyrimidin-5-ylamino)benzoic acid]",260 nM
